Laboratory results from US10314831B2, “RAC1 inhibitors of neurofibroma formation” (Indiana University Research and Technology Corporation, priority 2014, dated 2019).
pIC50: −log10 of the molar value.

Columns and labels:
Rac1 = Rac1 (Homo sapiens, UniProt P63000); conditions: previous work; cited from earlier work
Nf1-/- Schwann cells = assay: PDGF-mediated proliferation of NF1-deficient Schwann cells ([3H]-thymidine); format: cell-based, murine
Protocol: (§1) FIGS. 3A-3C depicts various properties of compound C20. FIG. 3A) Compound C20 inhibits PDGF-mediated Rac1-GTP activity at 0.5 μM in murine-derived neurofibroma cells. After 24-hour starvation in 0.5% BSA/DMEM, Nf1−/− Schwann cells were pretreated with compound C20 at the indicated concentrations. Cells were then stimulated with 50 ng/mL PDGF for 2 minutes and harvested for immunoprecipitation and activity assays. FIG. 3B) Compound C20 specifically interfered with Rac1-Tiam1 interactions at 15 nM in a GEF assay using purified protein. FIG. 3C) In [^3H]-thymidine dose-inhibition experiments, murine derived Nf1−/− Schwann cells were pre-treated with increasing quantities of the known Rac1 inhibitor NSC23766 or with putative Rac1 inhibitor C20.
In initial screens assaying platelet derived growth factor (PDGF)-mediated proliferation in NF1-deficient Schwann cells, compound C20 (KM04569, Ryan Scientific) was identified. C20 inhibited Schwann cell proliferation at 2 μM and Rac1GTP activity at 0.5 μM (FIGS. 3A-C). The structure of C20 is shown below:
Several analogs of C20 were identified or synthesized and were then screened using the NF1−/− Schwann cell proliferation assay. The initial set of thirteen analogs were developed (Table 1; First SAR) by making substitutions in the C and D pharmacophore elements.

Rac1-Tiam1 interactions = molecular target: T1, Rac1-Tiam1 interactions (Homo sapiens, UniProt P63000); assay: Rho-GEF exchange assay with purified Tiam1 and Rac1 (Cytoskeleton BK100 kit); format: biochemical
T1 construct: purchased Cytoskeleton, Inc. BK100
Protocol: as §1
Rho-GEF exchange experiments using a commercially available kit that measures guanine exchange fluorescence quantification (Cat #BK100; Cytoskeleton, Inc., Denver, Colo.) were conducted to measure GEF inhibition by C20.

Erk1/2 = Erk1/2 phosphorylation; format: cell-based
Text: (§2) No effect of C20 on Ras-GTP activation or Akt phosphorylation was observed (data not shown). However, C20 mitigated Erk1/2 phosphorylation.

Akt = Akt phosphorylation; format: cell-based; conditions: data not shown
Text: as §2

Rac1-GTP = molecular target: T2, Rac1-GTP (Mus musculus, UniProt P63001); assay: PDGF-mediated Rac1-GTP activity in Nf1-/- Schwann cells (immunoprecipitation and activity assay); format: cell-based; conditions: murine-derived neurofibroma cells (Nf1-/- Schwann cells), 50 ng/mL PDGF for 2 minutes
T2 construct: endogenous in cells; host or cells: murine-derived Nf1-/- Schwann cells
Protocol: FIG. 2 depicts the inhibition of Rac1-GTP activity by compound C20-26. Compound C20-26 inhibits PDGF-mediated Rac1-GTP activity at 40 nM in murine-derived neurofibroma cells. After 24-hour starvation in 0.5% BSA/DMEM, Nf1−/−Schwann cells were pretreated with compound C20-26 at the indicated concentrations. Cells were then stimulated with 50 ng/mL PDGF for 2 minutes and harvested for immunoprecipitation.
as §1

Ras-GTP = Ras-GTP activation; format: cell-based; conditions: data not shown
Text: as §2

[1] = previous work; cited from earlier work

Q: For `CCn1c2ccccc2c2cc(Nc3ccnc(NCCCN4CCOCC4)n3)ccc21` [EHop-016], which “concentration inhibiting Rac1” value (Rac1) is on record?
A: Its value is 1.1 µM.

Q: What does the source list for `O=S(=O)(Oc1cc(Cl)cc(Cl)c1)c1ccc(-c2ccccn2)s1` [Compound C20]?
A: pIC50 (Nf1-/- Schwann cells; Mus musculus, murine derived Nf1-/- Schwann cells, approximate, read-out: IC50, [3H]-thymidine dose-inhibition): ~5.70; concentration inhibiting Schwann cell proliferation (Nf1-/- Schwann cells; PDGF-mediated proliferation, NF1-deficient Schwann cells): 2 µM; concentration interfering with Rac1-Tiam1 interactions (Rac1-Tiam1 interactions; GEF assay using purified protein): 15 nM; GEF inhibition (Rac1-Tiam1 interactions; incubating Tiam1 and Rac1): dose-dependent GEF inhibition; effect on Erk1/2 phosphorylation (Erk1/2): mitigated; effect on Akt phosphorylation (Akt): No effect; concentration inhibiting PDGF-mediated Rac1-GTP activity (Rac1-GTP): 0.5 µM; effect on Ras-GTP activation (Ras-GTP): No effect

Q: For `CCN(CC)CCCC(C)Nc1nc(C)cc(Nc2ccc3nc(C)cc(N)c3c2)n1` (stereo not shown) [NSC23766], which toxicity [1] is on record?
A: The toxicity was “high toxicity”.
